Test results: patent US20110294732A1, “ERYTHROPOLETIN COMPLEMENTATION OR REPLACEMENT” (Universite De Strasbourg, priority 2007, published 2011)
Values joined by “and” are separate entries in the source; they are usually repeats but may differ in a detail not shown here. Identical values can stand only once. “Also recorded” adds a separate entry of the source.

Columns and labels:
[1] = target: murine hemoglobin (Mus musculus, UniProt P02088); experiment: In vitro P50 shift of hemoglobin mixed with ITPP (HEMOX analyzer); format: biochemical
murine hemoglobin, sequence (P02088 2-147 limits assumed): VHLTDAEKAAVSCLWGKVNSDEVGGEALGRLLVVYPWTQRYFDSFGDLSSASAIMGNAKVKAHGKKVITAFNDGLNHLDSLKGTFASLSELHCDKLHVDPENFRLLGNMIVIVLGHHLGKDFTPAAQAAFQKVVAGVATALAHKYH
murine hemoglobin, sequence (P01942 2-142 partner limits assumed): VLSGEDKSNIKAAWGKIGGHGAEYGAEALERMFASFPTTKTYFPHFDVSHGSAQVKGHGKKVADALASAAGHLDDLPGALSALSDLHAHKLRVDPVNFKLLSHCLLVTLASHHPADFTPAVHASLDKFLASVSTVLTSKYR
Description: Myo-ITPP was tested for its ability to induce a decrease of the O2-affinity of hemoglobin measured as a shift of the P50 value (P50 at 50% saturation of hemoglobin). The observed shifts to higher PO2 were up to 250% in murine hemoglobin and up to 40% in murine whole blood. This finding was particularly striking because the shifts occurred concomitantly in vivo with a decrease in the number of RBCs and hematocrit; such hemodilution is recognized as a positive indicator in many circumstances because it is diagnostic for downregulation of RBC production where the body's oxygen needs are being met efficiently. Additional support came from enhancement of the effort capacity of test animals by up to 100% following ITPP administration, which confirmed that oxygen was being delivered efficiently to the working muscle, and only to that muscle.
(§1) For the in vitro experiments, ITPP was dissolved in deionized water, pH was adjusted to pH 7 and, for incubation with whole blood, the osmolarity of the ITPP solutions was adjusted with glucose to 270-297 mOsM. Mixtures of hemoglobin and ITPP were measured with a HEMOX analyzer (PD Marketing, London) immediately after mixing. Red blood cells were incubated with ITPP for 1 hour at 37° C. Following incubation, the cells were washed 3 times with Bis-Tris-buffer (pH=7.0) and then used for P50 measurement.

[2] = system: whole blood; experiment: In vitro P50 of whole blood after incubation with effector, human; format: cell-based; details: 60 mM
Description: as §1
ITPP was tested along with a cholesteroyl derivative (here designated as kf96) (both at 60 mM) as effectors for P50 shifts in whole blood of three species: human, mouse and pig. As usual, pHs for the compound-solutions were adjusted to ca. 7.0, osmolarities for both solutions were determined (325-373 mOsM) prior to treatment with the effectors, and whole blood volumes at 1:1 ratios were incubated.

[3] = system: RBCs; experiment: Lysis of RBCs after in vitro incubation with effector; format: cell-based, human, mouse and pig
[4] = system: circulating RBC; experiment: P50 shift of circulating RBC after oral administration in drinking water; format: in vivo, C57BL/6 mice
Description: In experiments conducted in vivo in which ITPP was administered orally, ITPP was dissolved in drinking (not deionized) water at a 20 g/L-concentration (=27 mM, pH 7.0) and offered for drinking ad libitum. A significant shift of the P50 value of circulating RBCs was observed.
Twelve C57BL/6 mice drank ITPP over 4 days (about 25 ml/24 hrs). Seven Control mice drank either pure water (three mice), or a solution of IHP (inositol hexaphosphate without the internal pyrophosphate rings) at the same concentration and pH as ITPP (4 mice). […] Blood was collected from the tail vein of the 12 C57BL/6 mice on day 0 (before treatment started), 1, 2, 4, 6, 7, 8, 10, 11 and 12, in order to measure P50 values. […] Oral application of ITPP caused significant right shifts of P50 (up to 31%) in mice.
The 12 mice were observed over 12 days, the P50 values of their circulating RBC were measured almost daily. […] It appears that all mice ingesting the aqueous solution of ITPP present a shift of the P50 value of their circulating RBC, albeit with individual differences. FIG. 8 illustrates the individual differences in the P50 shift induced in the mice by ingestion of the aqueous solution of ITPP.

[5] = Tolerability and toxicity of intravenous injection in piglets; format: in vivo
Description: An in vivo experiment was performed on one 8 week-old normal piglet (body weight: 17 kg). The piglet was anesthesized with 5% Isoflurane, 0.7 L/min N2O and 2.0 L/min O2 for 20-30 minutes, when ITPP was injected, or blood was taken from the ear vein, respectively. The compound injected intravenous at a concentration of 27 g ITPP/100 ml water (volume injected: 63 ml, pH 6.5, containing 17 g ITPP=1 g/l kg body weight) was not harmful to the animal, when injected into the piglet's ear vein over at least 10 minutes.
Intravenous injection of 1 g ITPP/kg body weight caused a significant right shift of the P50-value (up to 20%) in porcine RBCs. An almost saturated ITPP solution, pH 6.7, was injected intravenously into two piglets (both of ca. 18 kg body weight) (27 g ITPP/100 ml=1.5 g/kg body weight) over 20 minutes.
Blood was taken from the heart of the dead animals for determination of blood counts as well as the amount of sodium, potassium and calcium in the sera. All numbers of blood cells (hematocrit, white blood cells etc.) were halved. The amount of potassium and calcium was normal, while sodium was doubled (before injection: 120-140 mmol/L; after injection: 245 mmol/L). Apparently, the large amount of sodium in that form of ITPP (6 Na^+/molecule) caused the death of the animals. It appears that up to 1 g ITPP per kg body weight can be injected intravenously, (if injected slowly) without harmful effects for the animals. […] A second piglet was also injected with ITPP at the 1 g/kg concentration, after 2 piglets had died after iv injection of 1.2 g ITPP (or even more) per kg body weight. […] Starting with day 3 after injection of the allosteric effector, the number of reticulocytes increased by about 3% for a period of 14 days.

[6] = Tolerability of ITPP injection in mice; format: in vivo, C57B1/6 mice
Description: Blood from C57B1/6 mice collected 2 hrs and 1 day after injection of 45, 60, 120 and 150 mM solutions of ITPP was measured for P50-shifts as reported. […] No animal died or seemed to suffer from the compound.

[7] = Hematocrit after IP injection; format: in vivo; details: 6 days after IP injection of 200 μl of a 60 mM solution; 40% on day 0
Description: It appears, based upon the preliminary data reported, that an inverse relationship exists between the number of RBCs and shift of their P50 value (see FIG. 1). The basal value of the RBC count is restored, once ΔP50 becomes 0%, 12 days after ingestion of ITPP. The hematocrit drops from 40% on day 0 (before ITPP administration) to 32%, 6 days after IP injection of 200 μl of a 60 mM ITPP solution.

[8] = Effort capacity test; format: in vivo, normal wild-type mice; details: normal animals, maximum
From the text: The effort capacity of normal animals may be enhanced by up to 100% by ITPP administration, since more oxygen can be delivered to the working muscle.

O=P1(O)OC2C3OP(=O)(O)OP(=O)(O)OC3C3OP(=O)(O)OP(=O)(O)OC3C2OP(=O)(O)O1 (stereo not shown) [ITPP, inositol-tripyrophosphate]
shift of the P50 value to higher PO2 [1]: up to 250% | P50 increase, % (ITPP) [2]: 39% | P50 mm Hg effector ITPP ([2]; control 22.1): 30.8 mm Hg | lysis of RBCs [3]: never occurred; also recorded: no lysis of RBCs was observed | time for P50 values to return to control values ([4]; ingestion stopped on day 4): ≤ 12 days | time lag before the maximum P50 shift is attained ([4]; oral, 27 mM): about 48 hrs | right shift of P50 ([4]; oral, 20 g/L (27 mM) in drinking water over 4 days): up to 31% | P50 day 7, % ([4]; single mouse, oral in water for 4 days, day 7): 13% and 14% and 20% (2×) and 16% (2×) and 15% and 7% and 9% | P50 day 10, % ([4]; single mouse, oral in water for 4 days, day 10): 10% (3×) and 6% and 12% and 16% and 8% and 11% and 9% | harmfulness of intravenous injection ([5]; 1 g/kg body weight, injected slowly over at least 10 minutes): not harmful | amount of potassium and calcium in the sera ([5]; after lethal iv injection): normal | sodium in the sera after injection ([5]; after lethal iv injection, before injection 120-140): 245 mmol/L | numbers of blood cells (hematocrit, white blood cells etc.) in the dead animals ([5]; heart blood after lethal iv injection): halved | amount that can be injected intravenously without harmful effects ([5]; if injected slowly): up to 1 g ITPP per kg body weight | mortality ([5]; iv, almost saturated solution 27 g/100 ml, intended 1.5 g/kg over 20 minutes, received <1.3 g/kg): Both piglets died; also recorded: killed the animals | tolerability ([6]; ip, concentrations up to 150 mM, no animal died): well tolerated | tolerability ([6]; mice, concentration of 120 mM): well tolerated | hematocrit [7]: 32% | enhancement of the effort capacity [8]: up to 100%
